# From ChEMBL document CHEMBL1671627, “Increasing trends in antimicrobial resistance among clinically important anaerobes and Bacteroides fragilis isolates causing nosocomial infections: emerging resistance to carbapenems” (2008)
# Columns and labels:
# [1] = tested on: Clostridium septicum; test: Antibacterial activity against beta-lactamase producing Clostridium septicum assessed as resistant isolates by CLSI agar dilution method; assay type: functional
# [2] = tested on: Bacteroides caccae; test: Antibacterial activity against beta-lactamase producing Bacteroides caccae by CLSI agar dilution method; assay type: functional
# [3] = tested on: Bacteroides uniformis; test: Antibacterial activity against beta-lactamase producing Bacteroides uniformis assessed as resistant isolates by CLSI agar dilution method; assay type: functional
# [4] = tested on: Clostridium paraputrificum; test: Antibacterial activity against beta-lactamase producing Clostridium paraputrificum assessed as resistant isolates by CLSI agar dilution method; assay type: functional
# [5] = tested on: Bacteroides thetaiotaomicron; test: Antibacterial activity against beta-lactamase producing Bacteroides thetaiotaomicron assessed as susceptible isolates by CLSI agar dilution method; assay type: functional
# [6] = tested on: Finegoldia magna; test: Antibacterial activity against beta-lactamase producing Finegoldia magna assessed as susceptible isolates by CLSI agar dilution method; assay type: functional
# [7] = tested on: Prevotella intermedia; test: Antibacterial activity against Prevotella intermedia by CLSI agar dilution method; assay type: functional
# [8] = tested on: Peptoniphilus asaccharolyticus; test: Antibacterial activity against beta-lactamase producing Peptoniphilus asaccharolyticus by CLSI agar dilution method; assay type: functional
# [9] = tested on: Prevotella buccae; test: Antibacterial activity against Prevotella buccae by CLSI agar dilution method; assay type: functional; settings: Segatella buccae
# [10] = tested on: Prevotella melaninogenica; test: Antibacterial activity against Prevotella melaninogenica assessed as resistant isolates by CLSI agar dilution method; assay type: functional
# [11] = tested on: Clostridium septicum; test: Antibacterial activity against beta-lactamase producing Clostridium septicum by CLSI agar dilution method; assay type: functional
# [12] = tested on: Prevotella bivia; test: Antibacterial activity against Prevotella bivia assessed as susceptible isolates by CLSI agar dilution method; assay type: functional
# [13] = tested on: Peptostreptococcus anaerobius; test: Antibacterial activity against beta-lactamase producing Peptostreptococcus anaerobius assessed as resistant isolates by CLSI agar dilution method; assay type: functional
# [14] = tested on: Fusobacterium varium; test: Antibacterial activity against Fusobacterium varium by CLSI agar dilution method; assay type: functional
# [15] = tested on: Bacteroides fragilis; test: Antibacterial activity against Bacteroides fragilis assessed as susceptible isolates by CLSI agar dilution method; assay type: functional
# [16] = tested on: Phocaeicola vulgatus; test: Antibacterial activity against beta-lactamase producing Bacteroides vulgatus assessed as resistant isolates by CLSI agar dilution method; assay type: functional
# [17] = tested on: Prevotella intermedia; test: Antibacterial activity against Prevotella intermedia assessed as susceptible isolates by CLSI agar dilution method; assay type: functional
# [18] = tested on: Fusobacterium necrophorum; test: Antibacterial activity against Fusobacterium necrophorum by CLSI agar dilution method; assay type: functional
# [19] = tested on: Veillonella parvula; test: Antibacterial activity against Veillonella parvula by CLSI agar dilution method; assay type: functional
# [20] = tested on: Fusobacterium mortiferum; test: Antibacterial activity against Fusobacterium mortiferum assessed as susceptible isolates by CLSI agar dilution method; assay type: functional
# [21] = tested on: Fusobacterium varium; test: Antibacterial activity against Fusobacterium varium assessed as susceptible isolates by CLSI agar dilution method; assay type: functional
# [22] = tested on: Clostridium tertium; test: Antibacterial activity against beta-lactamase producing Clostridium tertium assessed as susceptible isolates by CLSI agar dilution method; assay type: functional
# [23] = tested on: Parvimonas micra; test: Antibacterial activity against beta-lactamase producing Micromonas micros by CLSI agar dilution method; assay type: functional
# [24] = tested on: Bacteroides thetaiotaomicron; test: Antibacterial activity against beta-lactamase producing Bacteroides thetaiotaomicron assessed as resistant isolates by CLSI agar dilution method; assay type: functional
# [25] = tested on: Fusobacterium nucleatum; test: Antibacterial activity against Fusobacterium nucleatum by CLSI agar dilution method; assay type: functional
# [26] = tested on: Fusobacterium nucleatum; test: Antibacterial activity against Fusobacterium nucleatum assessed as resistant isolates by CLSI agar dilution method; assay type: functional
# [27] = tested on: Bacteroides caccae; test: Antibacterial activity against beta-lactamase producing Bacteroides caccae assessed as susceptible isolates by CLSI agar dilution method; assay type: functional
# [28] = tested on: Fusobacterium varium; test: Antibacterial activity against Fusobacterium varium assessed as resistant isolates by CLSI agar dilution method; assay type: functional
# [29] = tested on: Peptostreptococcus anaerobius; test: Antibacterial activity against beta-lactamase producing Peptostreptococcus anaerobius assessed as susceptible isolates by CLSI agar dilution method; assay type: functional
# [30] = tested on: Prevotella buccae; test: Antibacterial activity against Prevotella buccae assessed as susceptible isolates by CLSI agar dilution method; assay type: functional, Segatella buccae
# [31] = tested on: Bacteroides uniformis; test: Antibacterial activity against beta-lactamase producing Bacteroides uniformis assessed as susceptible isolates by CLSI agar dilution method; assay type: functional
# [32] = tested on: Prevotella bivia; test: Antibacterial activity against Prevotella bivia assessed as resistant isolates by CLSI agar dilution method; assay type: functional
# [33] = tested on: Bacteroides thetaiotaomicron; test: Antibacterial activity against beta-lactamase producing Bacteroides thetaiotaomicron by CLSI agar dilution method; assay type: functional
# [34] = tested on: Parvimonas micra; test: Antibacterial activity against beta-lactamase producing Micromonas micros assessed as susceptible isolates by CLSI agar dilution method; assay type: functional
# [35] = tested on: Prevotella melaninogenica; test: Antibacterial activity against Prevotella melaninogenica assessed as susceptible isolates by CLSI agar dilution method; assay type: functional
# [36] = tested on: Parvimonas micra; test: Antibacterial activity against beta-lactamase producing Micromonas micros assessed as resistant isolates by CLSI agar dilution method; assay type: functional
# [37] = tested on: Clostridium perfringens; test: microbe, parasite or virus in culture; assay type: functional
# [38] = tested on: Phocaeicola vulgatus; test: Antibacterial activity against beta-lactamase producing Bacteroides vulgatus assessed as susceptible isolates by CLSI agar dilution method; assay type: functional
# [39] = tested on: Peptoniphilus asaccharolyticus; test: Antibacterial activity against beta-lactamase producing Peptoniphilus asaccharolyticus assessed as susceptible isolates by CLSI agar dilution method; assay type: functional
# [40] = tested on: Bacteroides fragilis; test: Antibacterial activity against Bacteroides fragilis assessed as resistant isolates by CLSI agar dilution method; assay type: functional
# [41] = tested on: Finegoldia magna; test: Antibacterial activity against beta-lactamase producing Finegoldia magna by CLSI agar dilution method; assay type: functional
# [42] = tested on: Peptostreptococcus anaerobius; test: Antibacterial activity against beta-lactamase producing Peptostreptococcus anaerobius by CLSI agar dilution method; assay type: functional
# [43] = tested on: Phocaeicola vulgatus; test: Antibacterial activity against beta-lactamase producing Bacteroides vulgatus by CLSI agar dilution method; assay type: functional
# [44] = tested on: Fusobacterium mortiferum; test: Antibacterial activity against Fusobacterium mortiferum assessed as resistant isolates by CLSI agar dilution method; assay type: functional
# [45] = tested on: Prevotella buccae; test: Antibacterial activity against Prevotella buccae assessed as resistant isolates by CLSI agar dilution method; assay type: functional, Segatella buccae
# [46] = tested on: Peptoniphilus asaccharolyticus; test: Antibacterial activity against beta-lactamase producing Peptoniphilus asaccharolyticus assessed as resistant isolates by CLSI agar dilution method; assay type: functional
# [47] = tested on: Bacteroides caccae; test: Antibacterial activity against beta-lactamase producing Bacteroides caccae assessed as resistant isolates by CLSI agar dilution method; assay type: functional
# [48] = tested on: Prevotella bivia; test: Antibacterial activity against Prevotella bivia by CLSI agar dilution method; assay type: functional
# [49] = tested on: Clostridium tertium; test: Antibacterial activity against beta-lactamase producing Clostridium tertium by CLSI agar dilution method; assay type: functional
# [50] = tested on: Bacteroides uniformis; test: Antibacterial activity against beta-lactamase producing Bacteroides uniformis by CLSI agar dilution method; assay type: functional
# [51] = tested on: Fusobacterium mortiferum; test: Antibacterial activity against Fusobacterium mortiferum by CLSI agar dilution method; assay type: functional
# [52] = tested on: Fusobacterium necrophorum; test: Antibacterial activity against Fusobacterium necrophorum assessed as resistant isolates by CLSI agar dilution method; assay type: functional
# [53] = tested on: Clostridium paraputrificum; test: Antibacterial activity against beta-lactamase producing Clostridium paraputrificum by CLSI agar dilution method; assay type: functional
# [54] = tested on: Fusobacterium nucleatum; test: Antibacterial activity against Fusobacterium nucleatum assessed as susceptible isolates by CLSI agar dilution method; assay type: functional
# [55] = tested on: Fusobacterium necrophorum; test: Antibacterial activity against Fusobacterium necrophorum assessed as susceptible isolates by CLSI agar dilution method; assay type: functional
# [56] = tested on: Prevotella intermedia; test: Antibacterial activity against Prevotella intermedia assessed as resistant isolates by CLSI agar dilution method; assay type: functional
# [57] = tested on: Prevotella melaninogenica; test: Antibacterial activity against Prevotella melaninogenica by CLSI agar dilution method; assay type: functional
# [58] = tested on: Bacteroides fragilis; test: Antibacterial activity against Bacteroides fragilis by CLSI agar dilution method; assay type: functional
# [59] = tested on: Clostridium paraputrificum; test: Antibacterial activity against beta-lactamase producing Clostridium paraputrificum assessed as susceptible isolates by CLSI agar dilution method; assay type: functional
# [60] = tested on: Clostridium tertium; test: Antibacterial activity against beta-lactamase producing Clostridium tertium assessed as resistant isolates by CLSI agar dilution method; assay type: functional
# [61] = tested on: Finegoldia magna; test: Antibacterial activity against beta-lactamase producing Finegoldia magna assessed as resistant isolates by CLSI agar dilution method; assay type: functional
# [62] = tested on: Clostridium septicum; test: Antibacterial activity against beta-lactamase producing Clostridium septicum assessed as susceptible isolates by CLSI agar dilution method; assay type: functional
smiles,measurement,setting,value
Cc1ncc([N+](=O)[O-])n1CCO [METRONIDAZOLE],Activity,[1],11%
same,MIC50,[2],1 µg/mL
same,MIC90,[2],4 µg/mL
same,Activity,[3],0%
same,Activity,[4],11%
same,Activity,[5],100%
same,Activity,[6],88%
same,MIC50,[7],1 µg/mL
same,MIC90,[7],8 µg/mL
same,MIC50,[8],0.5 µg/mL
same,MIC90,[8],16 µg/mL
same,MIC50,[9],1 µg/mL
same,MIC90,[9],8 µg/mL
same,Activity,[10],0%
same,MIC50,[11],8 µg/mL
same,MIC90,[11],16 µg/mL
same,Activity,[12],94%
same,Activity,[13],9%
same,MIC50,[14],0.5 µg/mL
same,MIC90,[14],1 µg/mL
same,Activity,[15],98%
same,Activity,[16],0%
same,Activity,[17],94%
same,MIC50,[18],0.5 µg/mL
same,MIC90,[18],1 µg/mL
same,MIC,[19],1 µg/mL
same,Activity,[20],100%
same,Activity,[21],100%
same,Activity,[22],64%
same,MIC50,[23],0.5 µg/mL
same,MIC90,[23],16 µg/mL
same,Activity,[24],0%
same,MIC50,[25],0.5 µg/mL
same,MIC90,[25],1 µg/mL
same,Activity,[26],0%
same,Activity,[27],100%
same,Activity,[28],0%
same,Activity,[29],88%
same,Activity,[30],94%
same,Activity,[31],100%
same,Activity,[32],0%
same,MIC50,[33],1 µg/mL
same,MIC90,[33],2 µg/mL
same,Activity,[34],88%
same,Activity,[35],94%
same,Activity,[36],9%
same,MIC50,[37],8 µg/mL
same,MIC90,[37],16 µg/mL
same,Activity,[38],100%
same,Activity,[39],88%
same,Activity,[40],0%
same,MIC50,[41],0.5 µg/mL
same,MIC90,[41],16 µg/mL
same,MIC50,[42],0.5 µg/mL
same,MIC90,[42],16 µg/mL
same,MIC50,[43],1 µg/mL
same,MIC90,[43],4 µg/mL
same,Activity,[44],0%
same,Activity,[45],0%
same,Activity,[46],9%
same,Activity,[47],0%
same,MIC50,[48],1 µg/mL
same,MIC90,[48],8 µg/mL
same,MIC50,[49],8 µg/mL
same,MIC90,[49],16 µg/mL
same,MIC50,[50],1 µg/mL
same,MIC90,[50],4 µg/mL
same,MIC50,[51],0.5 µg/mL
same,MIC90,[51],1 µg/mL
same,Activity,[52],0%
same,MIC50,[53],8 µg/mL
same,MIC90,[53],16 µg/mL
same,Activity,[54],100%
same,Activity,[55],100%
same,Activity,[56],0%
same,MIC50,[57],1 µg/mL
same,MIC90,[57],8 µg/mL
same,MIC50,[58],2 µg/mL
same,MIC90,[58],8 µg/mL
same,Activity,[59],64%
same,Activity,[60],11%
same,Activity,[61],9%
same,Activity,[62],64%
